Experiments:
Assay type in all cases: physicochemical
[1] = Heat resistance stability test of filter (oven 80° C., 7 days); conditions: for Residual Ratio: (Absorbance after the test/Absorbance before the test)×100, 80° C., 7 days; for Absorbance (OD value) Initial: acryl resin filter on polyester film, at maximum absorption wavelength, before 80° C. test; for Absorbance (OD value) After 7 days: acryl resin filter, oven at 80° C. for 7 days
Experimental: (§1) In this connection, absorbance (OD value) was measured using a spectrophotometer UV-3150 made by Shimadzu Corp. When measurement was carried out using a solvent, the same solvent was measured as a blank, and when measurement was carried out using a filter, a filter which had the same composition except that only the cyanine compound was not contained was produced and measured as a blank.
In 18.8 parts of MEK, 0.4 parts of Compound 31 obtained in the above Example 5 was dissolved. To this solution, 80 parts of a resin solution prepared by dissolving 25 parts of an acryl-based resin (DIANAL (RTM) BR-80, made by Mitsubishi Rayon Co., Ltd.) in 75 parts of MEK was mixed to obtain a solution for coating. This solution was coated on a polyester film so that thickness becomes 2 to 4 μm, dried at 80° C. to obtain an optical filter of the present invention. This filter was used as a filter for absorbing near infrared rays.
The resultant filter for absorbing near infrared rays was left to stand in an oven at 80° C. for 7 days. Then absorbance (OD value) of the filter was measured with a spectrophotometer before and after the test, and residual ratio of the coloring matter was determined from the change of the absorbance (OD value) at the maximum absorption wavelength. Residual ratio=(Absorbance after the test/Absorbance before the test)×100

[2] = Wet heat resistance stability test of filter (85° C., 85% RH, 3 days); conditions: for Residual Ratio: absorbance after/before ×100, 85° C. and 85% RH, 3 days; for Absorbance (OD value) After 3 days / Absorbance (OD value) Initial: acryl resin filter; for Absorbance (OD value) After 3 days: 85° C. and 85% RH for 3 days; for Absorbance (OD value) Initial: before 85° C./85% RH test
Experimental: as §1
The filter obtained in Example 12 (the filter using Compound 31) was left to stand in a high temperature constant humidity chamber at 85° C. and 85% RH for 3 days. Absorbance (OD value) of the filter was measured with a spectrophotometer before and after the test, and residual ratio of the coloring matter was determined from the change of the absorbance (OD value) at the maximum absorption wavelength.
The filters obtained in Comparative Examples 1 to 6 were left to stand in a high temperature constant humidity chamber at 85° C. and 85% RH for 3 days. Then absorbances (OD values) of the filters were measured with a spectrophotometer before and after the test, and residual ratios of the coloring matters were determined from the changes of the absorbances (OD values) at each maximum absorption wavelength. The test using the filter obtained in Comparative Example 1 is termed as Comparative Example 7, the test using the filter obtained in Comparative Example 2 is termed as Comparative Example 8, the test using the filter obtained in Comparative Example 3 is termed as Comparative Example 9, the test using the filter obtained in Comparative Example 4 is termed as Comparative Example 10, the test using the filter obtained in Comparative Example 5 is termed as Comparative Example 11, and the test using the filter obtained in Comparative Example 6 is termed as Comparative Example 12.

[3] = Decomposition temperature by thermogravimetric-differential thermal analysis (TG-DTA); conditions: temperature at which weight loss initiated
Experimental: Into 25 parts of acetic acid, 14.9 parts of 4,5-benzo-1-(2-methoxyethyl)-3,3-dimethyl-2-methyleneindoline and 4.5 parts of 2-chloro-1-formyl-3-hydroxymethylenecyclohexene were charged and the reaction mixture was heated up to 60° C. 5.1 parts of acetic anhydride was added dropwise thereto at 50° C. to 60° C. over 1 hour, and then stirred at 50° C. to 60° C. for further 2 hours to complete the condensation reaction. The reaction liquid was cooled to room temperature, and then filtered under aspiration to remove insoluble impurity. Subsequently, a solution of 8.8 parts of potassium(bis-trifluoromethanesulfonyl)imide in 40 parts of water was added dropwise to the reaction liquid. The precipitated crystal was filtered under aspiration, recrystallized from 70 parts of N,N-dimethylformamide, washed with 5 parts of methanol, then with water, and dried, to obtain 19.1 parts of the aforementioned Compound 31. Spectroscopic characteristics and decomposition temperature of the resultant Compound 31 were as follows. In this connection, decomposition temperature was shown by a value of the temperature at which weight loss initiated in a thermogravimetric-differential thermal analysis (TG-DTA).

[4] = Solubility to various solvents at room temperature; conditions: % by mass
Excerpt: Further, solubility to various types of solvents at room temperature was as follows.
Further, solubility to various kinds of solvents at room temperature was as follows.

SMILES: CN1/C(=C/C=C/C=C/C=C/C2=[N+](C)c3ccc4ccccc4c3C2(C)C)C(C)(C)c2c1ccc1ccccc21 [Compound C]
- Residual Ratio [1]: 80.9%
- Absorbance (OD value) Initial [1]: 0.75
- Absorbance (OD value) After 7 days [1]: 0.61
- Residual Ratio [2]: 89.7%
- Absorbance (OD value) After 3 days [2]: 0.67
- Absorbance (OD value) Initial [2]: 0.75

SMILES: CCCCOCCN1/C(=C/C=C2\CCC(/C=C/C3=[N+](CCOCCCC)c4ccc5ccccc5c4C3(C)C)=C2Cl)C(C)(C)c2c1ccc1ccccc21 [Compound 47]
- Decomposition temperature [3]: 186.0 °C
- Solubility, Cyclohexanone [4]: 2.6%
- Solubility, Cyclopentanone [4]: 0.9%
- Solubility, Methyl ethyl ketone (MEK) [4]: 1.6%
- Solubility, N,N-dimethylformamide [4]: 4.5%

SMILES: COCCN1/C(=C/C=C2\CCCC(/C=C/C3=[N+](CCOC)c4ccccc4C3(C)C)=C2Cl)C(C)(C)c2ccccc21 [Compound A]
- Residual Ratio [1]: 87.2%
- Absorbance (OD value) Initial [1]: 0.83
- Absorbance (OD value) After 7 days [1]: 0.72
- Decomposition temperature [3]: 224.6 °C
- Residual Ratio [2]: 99.9%
- Absorbance (OD value) After 3 days [2]: 0.82
- Absorbance (OD value) Initial [2]: 0.83

SMILES: CN1/C(=C/C=C2\CCCC(/C=C/C3=[N+](C)c4ccc5ccccc5c4C3(C)C)=C2Cl)C(C)(C)c2c1ccc1ccccc21 [Compound B]
- Residual Ratio [1]: 85.6%
- Absorbance (OD value) Initial [1]: 0.67
- Absorbance (OD value) After 7 days [1]: 0.57
- Residual Ratio [2]: 93.6%
- Absorbance (OD value) After 3 days [2]: 0.63
- Absorbance (OD value) Initial [2]: 0.67

SMILES: COCCN1/C(=C/C=C/C=C/C=C/C2=[N+](CCOC)c3ccccc3C2(C)C)C(C)(C)c2ccccc21 [Compound 30]
- Residual Ratio [1]: 89.7%
- Absorbance (OD value) Initial [1]: 0.83
- Absorbance (OD value) After 7 days [1]: 0.74
- Residual Ratio [2]: 97.3%
- Absorbance (OD value) After 3 days [2]: 0.80
- Absorbance (OD value) Initial [2]: 0.83

SMILES: COCCN1/C(=C/C=C2\CCCC(/C=C/C3=[N+](CCOC)c4ccc5ccccc5c4C3(C)C)=C2Cl)C(C)(C)c2c1ccc1ccccc21 [Compound 31]
- Residual Ratio [1]: 80.9%
- Absorbance (OD value) Initial [1]: 0.65
- Absorbance (OD value) After 7 days [1]: 0.52
- Decomposition temperature [3]: 242.9 °C
- Solubility, Cyclopentanone [4]: 14.5%
- Solubility, Dichloromethane [4]: 19.2%
- Solubility, Methyl ethyl ketone (MEK) [4]: 2.9%
- Solubility, N,N-dimethylformamide [4]: 24.6%
- Residual Ratio [2]: 90.9%
- Absorbance (OD value) After 3 days [2]: 0.59
- Absorbance (OD value) Initial [2]: 0.65

SMILES: COCCN1/C(=C/C=C2\CCC(/C=C/C3=[N+](CCOC)c4ccc5ccccc5c4C3(C)C)=C2Cl)C(C)(C)c2c1ccc1ccccc21 [Compound 46]
- Decomposition temperature [3]: 213.0 °C
- Solubility, Cyclohexanone [4]: 0.8%
- Solubility, Cyclopentanone [4]: 3.1%
- Solubility, Methyl ethyl ketone (MEK) [4]: 0.2%
- Solubility, N,N-dimethylformamide [4]: 3.4%
